The subject of this experiment is RENCA tumors. The experiment in a line: Subcutaneous RENCA tumor growth in mice. It counts as in vivo. To be noted: s.c. RENCA in Balb/C mice, i.p. treatment from day 10, vs saline. The procedure: Mice: Balb/C mice, 5-8 weeks old, were purchased from Jackson laboratory (Ellsworth, Maine) and housed under pathogen free conditions. All experiments involving animals followed federal and state standards, which include the federal Animal Welfare Act and the NIH guide for the care and use of laboratory animals. The RENCA tumors were generated by subcutaneously injecting 2×10^5 tumor cells into the frank. The day tumor cells were injected was considered day 0. PF (0.1 mmol), PC (0.1 mmol) or P60 (100 ug) was administered i.p. twice a week starting on day 10; αPD1 (200 μg) was administered i.p. twice a week starting on day 5; temsirolimus (15 μg) was administered i.p. every other day, starting on day 10. All drugs were administered throughout the experimental course unless indicated. CD8 cells were depleted with a one-time αCD8 (200 μg) i.p. administration on day 2.
In cancer, Tregs can suppress the antitumor immune response, which is primarily mediated by CD8+ lymphocytes. Therefore, PF was administered to mice to enhance antitumor immunity and suppress growth of syngeneic mouse kidney cancer, which is considered an immunoresponsive cancer type. Mice tumors were established by injecting RENCA cells subcutaneously in the flank of Balb/C mice (5-7 mice per group). RENCA cells were injected subcutaneously to establish palpable tumors, and 10 days later mice were treated i.p., twice a week throughout the experiment, with PF, PC, P60 or Saline (FIG. 3D). Pomalidomide conjugated to (PEG)4 (PROTAC-control; PC) and P60 served as controls. […] In summary, PF decreased the immunosuppressive function of Tregs in vitro and decreased tumor growth in mice. […]
All immunotherapies, particularly when multi-drug combinations are involved, may have off-target effects. For example, drugs may have direct effects on the tumor, inhibiting tumor proliferation or inducing tumor apoptosis. Mice tumors were established by injecting RENCA cell subcutaneously in the flank of Balb/C mice (6-8 mice per group). 10 days later, mice were treated with PF twice per week. CD8 lymphocytes were depleted with αCD8 administered i.p. 2 days after injection of tumor cells. Mice in indicated groups received i.p. αPD1, twice a week, starting day 5 (FIG. 5A). Mice in indicated groups received i.p. temsirolimus every other day for 14 days, starting on days 10 (FIG. 5B). Tumor growth was monitored in these groups. […]

“Also recorded” adds a separate entry of the source. No end group written: not given here.

As for `CO[C@H]1C[C@@H]2CC[C@@H](C)[C@@](O)(O2)C(=O)C(=O)N2CCCC[C@H]2C(=O)O[C@H]([C@H](C)C[C@@H]2CC[C@@H](OC(=O)C(C)(CO)CO)[C@H](OC)C2)CC(=O)[C@H](C)/C=C(\C)[C@@H](O)[C@@H](OC)C(=O)[C@H](C)C[C@H](C)/C=C/C=C/C=C/1C` [temsirolimus], the “tumor growth, single agent” value is “suppressed tumor growth”.

In the case of “RDFQSFRKMWPFFAM (not fully specified (some residues)) [P60]”, the “tumor growth, single agent” value is “Only PF produced a decrease in tumor growth; also recorded: no effect on RENCA tumor growth”.

(Values after patent US20250049930A1, “PROTAC MOLECULES TARGETING FOXP3 AND USES THEREOF” (CEDARS-SINAI MEDICAL CENTER, priority 2022, published 2025).)
